Our source for the TGI and GI50 values is PubChem BioAssay (NCI).

SMILES strings stand for the structures.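 96-well plates; 48 h exposure; 5 concentrations. Endpoints by linear interpolation between flanking doses. Not reached: highest tested concentration assigned. GI50: concentration for 50% inhibition of growth. TGI: total growth inhibition.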 Some results are limits rather than exact numbers.

Some test systems named below: COLO 205 colon; HCT-116 colon; HL-60(TB) leukemia; HOP-62 NSCLC; HOP-92 NSCLC; IGROV1 ovarian; SF-295 CNS; SK-MEL-28 melanoma; SNB-75 CNS; U251 CNS.
Test in all cases: NCI anticancer screen, dose series, 48 h

Consider `C/C=C/C=N/N(C(=O)c1cc([N+](=O)[O-])cc([N+](=O)[O-])c1)C1=NC(c2ccccc2)C(c2ccccc2)=NN1` (stereo unspecified), for which the TGI is 75 µM in the assay with COLO 205 colon; 84.8 µM in the assay with HCT-116 colon; 55.6 µM with HL-60(TB) leukemia; over 100 µM with HOP-62 NSCLC; 62.2 µM in the assay with HOP-92 NSCLC; over 100 µM in the assay on IGROV1 ovarian. In addition, the TGI in the assay with SF-295 CNS, with SK-MEL-28 melanoma, with SNB-75 CNS and in the assay on U251 CNS was over 100 µM in each case.

In the case of `Cc1ccccc1NC(=O)C(=O)C(c1cnc2ccc([N+](=O)[O-])cc2n1)[N+](=O)[O-]` (stereo unspecified), the TGI in the assay with COLO 205 colon, in the assay with HCT-116 colon, in the assay on HL-60(TB) leukemia, in the assay on HOP-62 NSCLC, in the assay on HOP-92 NSCLC and in the assay with IGROV1 ovarian was over 100 µM throughout. For the same compound, the TGI with SF-295 CNS, in the assay with SK-MEL-28 melanoma, in the assay on SNB-75 CNS and in the assay with U251 CNS was over 100 µM throughout.

With `CCC(C)OC(=O)C1C2CCC(O2)C1C(=O)O` (stereo unspecified), the TGI in the assay on COLO 205 colon is over 60.1 µM; in the assay on HCT-116 colon it was over 56.3 µM; in the assay on HL-60(TB) leukemia, over 100 µM; in the assay with HOP-62 NSCLC, over 100 µM; in the assay on HOP-92 NSCLC it was over 100 µM; with IGROV1 ovarian, over 100 µM. Besides, the TGI with SF-295 CNS was over 100 µM; with SK-MEL-28 melanoma, over 100 µM; in the assay on SNB-75 CNS it was over 100 µM; with U251 CNS it was over 67.3 µM.

Regarding `N=C1N(c2ccccc2)C(=O)C23CCCC2C13N1CCOCC1` (stereo unspecified), the TGI with COLO 205 colon, in the assay with HCT-116 colon, in the assay with HL-60(TB) leukemia, with HOP-62 NSCLC, in the assay with HOP-92 NSCLC and with IGROV1 ovarian was over 100 µM throughout. For the same compound, the TGI in the assay with SF-295 CNS, with SK-MEL-28 melanoma, in the assay on SNB-75 CNS and in the assay with U251 CNS was over 100 µM throughout.

`CN=C1Nc2ccc(Cl)cc2C(c2ccccc2)=NN1C`: the TGI is over 100 µM in the assay with COLO 205 colon; over 100 µM in the assay with HCT-116 colon; over 100 µM in the assay on HL-60(TB) leukemia; over 100 µM with HOP-62 NSCLC; 77.5 µM in the assay with HOP-92 NSCLC; over 100 µM in the assay with IGROV1 ovarian. The TGI in the assay with SF-295 CNS, in the assay on SK-MEL-28 melanoma, in the assay with SNB-75 CNS and with U251 CNS was over 100 µM throughout.

With `COC(=O)C1=CN=C(C(=O)OC)NN1`, the TGI in the assay on COLO 205 colon, in the assay with HCT-116 colon, in the assay on HL-60(TB) leukemia, in the assay on HOP-62 NSCLC, with HOP-92 NSCLC and in the assay on IGROV1 ovarian was over 100 µM throughout. The TGI with SF-295 CNS, in the assay with SK-MEL-28 melanoma, with SNB-75 CNS and in the assay on U251 CNS was over 100 µM in each case.

With `CN(C)C(=O)/N=c1\ss/c(=N\C(=S)N(C)C)n1-c1ccccc1`, the GI50 was 0.306 µM in the assay on COLO 205 colon and 6.59 µM in the assay on HL-60(TB) leukemia. Moreover, the TGI is over 100 µM with COLO 205 colon; 47.1 µM with HCT-116 colon; 44.8 µM in the assay on HL-60(TB) leukemia; over 100 µM with HOP-62 NSCLC; over 100 µM in the assay with HOP-92 NSCLC; over 100 µM in the assay with IGROV1 ovarian. Besides, the TGI in the assay with SF-295 CNS is over 100 µM; with SK-MEL-28 melanoma it was over 56.6 µM; in the assay with SNB-75 CNS, 71.1 µM; with U251 CNS it was over 100 µM.

For `O=C(O)c1ccc2c(c1Nc1ccccc1)C(=O)c1ccccc1C2=O`, the GI50 in the assay with COLO 205 colon is 38.9 µM; with HCT-116 colon it was 26.6 µM; in the assay with HL-60(TB) leukemia, 79.3 µM; in the assay on HOP-62 NSCLC, 35.6 µM; in the assay on HOP-92 NSCLC, 27.9 µM; with IGROV1 ovarian, 16.2 µM. Besides, the GI50 in the assay with SF-295 CNS was 20.3 µM; with SK-MEL-28 melanoma, over 100 µM; in the assay on SNB-75 CNS it was 46.7 µM; with U251 CNS, 47 µM. For the same compound, the TGI with COLO 205 colon, with HCT-116 colon, with HL-60(TB) leukemia, in the assay with HOP-62 NSCLC, with HOP-92 NSCLC and in the assay on IGROV1 ovarian was over 100 µM each time. The TGI in the assay with SF-295 CNS, in the assay with SK-MEL-28 melanoma, in the assay on SNB-75 CNS and in the assay on U251 CNS was over 100 µM throughout.

For the compound `NC1=C(Cl)C(=O)c2ccc(S(N)(=O)=O)cc2C1=O`, the GI50 is 1.57 µM in the assay with COLO 205 colon; 0.224 µM with HCT-116 colon; 0.366 µM with HL-60(TB) leukemia; 0.251 µM in the assay with HOP-62 NSCLC; 2.04 µM with HOP-92 NSCLC; 0.681 µM in the assay with IGROV1 ovarian. In addition, the GI50 was 0.143 µM in the assay on SF-295 CNS, 0.247 µM with SK-MEL-28 melanoma, 0.144 µM with SNB-75 CNS and 0.184 µM in the assay with U251 CNS. Besides, the TGI was 2.98 µM with COLO 205 colon; 0.602 µM with HCT-116 colon; 1.18 µM in the assay with HL-60(TB) leukemia; 0.596 µM in the assay with HOP-62 NSCLC; 3.73 µM in the assay with HOP-92 NSCLC; 1.57 µM with IGROV1 ovarian. In addition, the TGI was determined as 0.289 µM in the assay with SF-295 CNS, 0.565 µM in the assay with SK-MEL-28 melanoma, 0.293 µM with SNB-75 CNS and 0.871 µM in the assay with U251 CNS.

Turning to `NC(CNO)C(=O)O` (stereo unspecified), the TGI in the assay with COLO 205 colon is over 100 µM; with HCT-116 colon it was over 100 µM; in the assay with HL-60(TB) leukemia, 21.7 µM; in the assay on HOP-62 NSCLC it was over 100 µM; in the assay with HOP-92 NSCLC it was over 100 µM; in the assay with IGROV1 ovarian, over 100 µM. Moreover, the TGI in the assay on SF-295 CNS, in the assay on SK-MEL-28 melanoma, with SNB-75 CNS and in the assay on U251 CNS was over 100 µM each time.

Turning to `O=C(O)c1ccc(O)c(N=Nc2cc(S(=O)(=O)O)c3ccccc3c2O)c1`, the TGI with COLO 205 colon was over 100 µM; with HCT-116 colon it was 37.4 µM; in the assay with HL-60(TB) leukemia, over 100 µM; with HOP-62 NSCLC it was 35.6 µM; in the assay with HOP-92 NSCLC, over 100 µM; in the assay on IGROV1 ovarian, over 100 µM. The TGI is over 10 µM with SF-295 CNS, over 100 µM with SK-MEL-28 melanoma, over 100 µM in the assay with SNB-75 CNS and over 100 µM with U251 CNS.

For `O=C1C(=O)c2ccccc2-c2ccccc21`, the GI50 in the assay with COLO 205 colon is 2.02 µM; with HCT-116 colon it was 0.831 µM; in the assay on HL-60(TB) leukemia, 1.56 µM; with HOP-62 NSCLC, 1.72 µM; in the assay with HOP-92 NSCLC, 1.46 µM; with IGROV1 ovarian, 2.07 µM. For the same compound, the GI50 was 1.76 µM in the assay with SF-295 CNS, 1.77 µM with SK-MEL-28 melanoma, 1.51 µM in the assay with SNB-75 CNS and 1.67 µM in the assay on U251 CNS. Further, the TGI with COLO 205 colon amounted to 4.28 µM; with HCT-116 colon, 2.21 µM; in the assay on HL-60(TB) leukemia, 4.11 µM; with HOP-62 NSCLC it was 5.24 µM; in the assay on HOP-92 NSCLC, 2.93 µM; in the assay on IGROV1 ovarian, 3.75 µM. Besides, the TGI was 3.23 µM in the assay with SF-295 CNS, 3.24 µM in the assay with SK-MEL-28 melanoma, 2.9 µM with SNB-75 CNS and 3.53 µM in the assay on U251 CNS.

On to `N#CC(=S)Nc1ccc(Cl)c(Cl)c1`, for which the TGI is 49.5 µM with COLO 205 colon; over 50 µM in the assay with HCT-116 colon; 40.9 µM in the assay on HL-60(TB) leukemia; 99.5 µM with HOP-62 NSCLC; 9.59 µM with HOP-92 NSCLC; 53.8 µM in the assay with IGROV1 ovarian. Besides, the TGI in the assay with SF-295 CNS was 57.8 µM; with SK-MEL-28 melanoma, over 62.7 µM; in the assay with SNB-75 CNS, 74.7 µM; with U251 CNS, over 85.1 µM. For the same compound, in the assay with HL-60(TB) leukemia, the GI50 was 11.8 µM.

On to `Oc1ccc(CNCc2ccccc2)c2cccnc12`, for which the TGI in the assay on COLO 205 colon is over 72 µM; with HCT-116 colon, over 100 µM; in the assay with HL-60(TB) leukemia, 1.05 µM; in the assay with HOP-62 NSCLC, over 51.2 µM; in the assay with HOP-92 NSCLC, 0.57 µM; in the assay with IGROV1 ovarian it was over 100 µM. The TGI in the assay on SF-295 CNS is 61.4 µM; in the assay on SK-MEL-28 melanoma, over 100 µM; in the assay with SNB-75 CNS, 0.229 µM; with U251 CNS, 2.77 µM.

Consider `O=C(O)C1NCCc2c1[nH]c1ccccc21` (stereo unspecified), for which the GI50 with COLO 205 colon, in the assay on HCT-116 colon, with HL-60(TB) leukemia, in the assay on HOP-92 NSCLC, with IGROV1 ovarian and in the assay on SK-MEL-28 melanoma was over 100 µM each time. Besides, the GI50 in the assay on SNB-75 CNS and in the assay with U251 CNS was over 100 µM throughout. Also, the TGI with COLO 205 colon was over 100 µM; in the assay with HCT-116 colon, over 100 µM; with HL-60(TB) leukemia, over 100 µM; in the assay on HOP-62 NSCLC, over 10 µM; in the assay with HOP-92 NSCLC, over 100 µM; with IGROV1 ovarian, over 100 µM. The TGI in the assay on SF-295 CNS, with SK-MEL-28 melanoma, with SNB-75 CNS and with U251 CNS was over 100 µM each time.

`Cc1cccc2c(N=Nc3ccc(S(N)(=O)=O)cc3)c(O)[nH]c12`: the GI50 in the assay on COLO 205 colon, with HCT-116 colon, with HL-60(TB) leukemia, with HOP-62 NSCLC, in the assay with HOP-92 NSCLC and in the assay with IGROV1 ovarian was over 25 µM throughout. The GI50 in the assay on SF-295 CNS, in the assay on SK-MEL-28 melanoma, in the assay on SNB-75 CNS and in the assay on U251 CNS was over 25 µM in each case. In addition, the TGI in the assay with COLO 205 colon, in the assay on HCT-116 colon, in the assay on HL-60(TB) leukemia, in the assay on HOP-62 NSCLC, in the assay with HOP-92 NSCLC and in the assay on IGROV1 ovarian was over 25 µM throughout. In addition, the TGI in the assay with SF-295 CNS, with SK-MEL-28 melanoma, with SNB-75 CNS and with U251 CNS was over 25 µM each time.
